Measurements reported in patent publication US12252524B2, “GIP/GLP1 co-agonist compounds” (Eli Lilly and Company, priority 2018, dated 2025).
Numbered stars: 1 amine (or outer) side, 2 acyl side, 3 side chain; on linkers, the order of the positions; unused ones are H or OH. Square brackets hold non-standard residues; d marks the D form. Side chains are listed from the residue outwards. Peptide text beside a SMILES is read from it. * marks the point of attachment. Malonyl(2,2-Me2,histaminyl) = CC(C)(C(=O)NCCc1cnc[nH]1)C(=O)*; C20 diacid = O=C(O)CCCCCCCCCCCCCCCCCCC(=O)*; αMePhe(2-F) = C[C@](N)(Cc1ccccc1F)C(=O)O; γGlu = O=C(O)[C@H](CCC(=O)[*:2])N[*:1]; αMeY = C[C@](N)(Cc1ccc(O)cc1)C(=O)O; αMeF = C[C@](N)(Cc1ccccc1)C(=O)O; αMeL = CC(C)C[C@](C)(N)C(=O)O; AEEA = NCCOCCOCC(=O)O; Aib = CC(C)(N)C(=O)O

Columns and labels:
human Gcg receptor = molecular target: T1, human Gcg receptor (Homo sapiens, UniProt P47871); test: [125I]-Glucagon binding (SPA), human Gcg receptor; settings: read-out: hGLcgR Ki, nM (SEM, n)
T1 construct: expressed in transfected cells; crude membranes
Outline: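 Cell pellets were lysed in hypotonic Tris buffer, pH 7.5, homogenized, and spun at low then high speed to give crude membranes. Ki was derived from the fitted IC50.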

human GLP-1R = human GLP-1R (Homo sapiens, UniProt P43220); test: [125I]-GLP-1 binding (SPA), human GLP-1 receptor; set-up: expressed in transfected cells; crude membranes; settings: read-out: hGLP1R Ki, (nM) (SEM, n)
Outline: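 Frozen cell pellets are lysed on ice in hypotonic Tris buffer, pH 7.5, homogenized, and centrifuged to a membrane pellet resuspended at about 1 to 3 mg/mL. Binding is then measured in HEPES-based buffer at pH 7.4, and curves are fitted to give IC50 and Ki.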

[1] = molecular target: human GLP-1 receptor (GLP-1R) (Homo sapiens, UniProt P43220); test: cAMP pharmacological functional assay in presence of casein, hGLP-1R; format: cell-based; settings: HEK293 cells expressing hGLP-1R, 0.1% Casein, geometric mean; read-out: hGLP1R cAMP Rel EC50 nM (SEM, n)
[2] = molecular target: T2, gastric inhibitory peptide receptor (GIPR) (Homo sapiens, UniProt P48546); test: cAMP pharmacological functional assay in presence of casein, hGIPR; format: cell-based; settings: HEK293 cells expressing hGIPR, 0.1% Casein, geometric mean; read-out: hGIPR cAMP Rel EC50 nM (SEM, n)
T2 sequence (P48546 22-466): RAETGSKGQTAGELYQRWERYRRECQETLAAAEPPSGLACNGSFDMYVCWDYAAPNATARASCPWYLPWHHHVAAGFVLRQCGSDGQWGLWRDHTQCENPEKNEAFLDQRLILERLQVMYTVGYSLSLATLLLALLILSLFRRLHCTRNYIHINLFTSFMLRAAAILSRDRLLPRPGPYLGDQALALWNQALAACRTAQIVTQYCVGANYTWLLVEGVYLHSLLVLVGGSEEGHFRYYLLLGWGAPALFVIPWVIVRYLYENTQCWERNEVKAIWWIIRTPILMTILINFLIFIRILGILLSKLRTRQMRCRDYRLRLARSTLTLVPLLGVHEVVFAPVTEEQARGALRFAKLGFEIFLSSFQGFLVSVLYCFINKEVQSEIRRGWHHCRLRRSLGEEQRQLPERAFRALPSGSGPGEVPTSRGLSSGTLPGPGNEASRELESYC

human GIP receptor = molecular target: T3, human GIP receptor (Homo sapiens, UniProt P48546); test: [125I]-GIP binding (SPA), human GIP receptor; settings: read-out: hGIPR Ki, nM (SEM, n)
T3 construct: expressed in transfected cells; crude membranes
T3 sequence (P48546 22-466): T2 sequence (P48546 22-466)

Sequence of human GLP-1R (P43220 24-463): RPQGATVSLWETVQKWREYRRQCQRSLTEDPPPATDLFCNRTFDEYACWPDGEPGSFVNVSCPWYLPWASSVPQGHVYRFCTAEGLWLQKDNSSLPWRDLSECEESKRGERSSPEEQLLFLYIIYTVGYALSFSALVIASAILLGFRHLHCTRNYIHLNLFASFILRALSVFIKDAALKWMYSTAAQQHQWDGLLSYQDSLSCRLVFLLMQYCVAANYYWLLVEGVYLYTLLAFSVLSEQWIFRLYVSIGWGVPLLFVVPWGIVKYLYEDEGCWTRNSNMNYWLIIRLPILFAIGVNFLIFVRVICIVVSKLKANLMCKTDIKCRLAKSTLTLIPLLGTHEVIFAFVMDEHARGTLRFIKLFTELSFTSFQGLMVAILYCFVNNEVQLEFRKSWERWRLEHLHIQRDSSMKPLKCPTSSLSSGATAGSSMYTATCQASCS
Sequence of human GLP-1 receptor (GLP-1R) (P43220 24-463): as above
T1 sequence (P47871 26-477): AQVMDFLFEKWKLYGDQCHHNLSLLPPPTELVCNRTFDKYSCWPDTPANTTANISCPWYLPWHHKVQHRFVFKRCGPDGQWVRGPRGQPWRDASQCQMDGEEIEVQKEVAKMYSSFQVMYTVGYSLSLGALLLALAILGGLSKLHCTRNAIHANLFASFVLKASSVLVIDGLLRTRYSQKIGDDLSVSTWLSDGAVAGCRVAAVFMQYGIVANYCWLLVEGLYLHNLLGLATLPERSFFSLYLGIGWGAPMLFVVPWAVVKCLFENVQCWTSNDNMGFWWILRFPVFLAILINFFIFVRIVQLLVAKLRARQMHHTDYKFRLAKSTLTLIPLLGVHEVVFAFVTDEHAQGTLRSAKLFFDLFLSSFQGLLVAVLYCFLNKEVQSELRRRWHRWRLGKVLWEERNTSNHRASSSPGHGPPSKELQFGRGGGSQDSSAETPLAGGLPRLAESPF

Compound | Ki (human Gcg receptor) | Ki (human GLP-1R) | EC50 [1] | EC50 [2] | Ki (human GIP receptor)
CC[C@H](C)[C@H](NC(=O)[C@H](CC(C)C)NC(=O)[C@H](Cc1ccc(O)cc1)NC(=O)[C@@H](CCC(=O)O)NC(=O)[C@@H](NC(=O)[C@H](Cc1ccccc1)NC(=O)[C@H](CCC(=O)O)NC(=O)C(C)(C)NC(=O)[C@H](CCC(N)=O)NC(=O)[C@H](C)NC(=O)[C@H](CCCCNC(=O)COCCOCCNC(=O)COCCOCCNC(=O)CC[C@H](NC(=O)CCCCCCCCCCCCCCCCCCC(=O)O)C(=O)O)NC(=O)[C@H](Cc1c[nH]cn1)NC(=O)[C@H](CC(=O)O)NC(=O)[C@H](CC(C)C)NC(=O)[C@](C)(CC(C)C)NC(=O)[C@@H](NC(=O)[C@H](CO)NC(=O)[C@H](Cc1ccc(O)cc1)NC(=O)[C@H](CC(=O)O)NC(=O)[C@H](CO)NC(=O)[C@@H](NC(=O)[C@](C)(Cc1ccccc1F)NC(=O)[C@@H](NC(=O)CNC(=O)[C@H](CCC(=O)O)NC(=O)C(C)(C)NC(=O)[C@@H](N)Cc1ccc(O)cc1)[C@@H](C)O)[C@@H](C)O)[C@@H](C)CC)[C@@H](C)CC)C(=O)N[C@@H](CCC(=O)O)C(=O)NCC(=O)NCC(=O)N1CCC[C@H]1C(=O)N[C@@H](CO)C(=O)N[C@@H](CO)C(=O)NCC(=O)N[C@@H](C)C(=O)N1CCC[C@H]1C(=O)N1CCC[C@H]1C(=O)N1CCC[C@H]1C(=O)N[C@@H](CO)C(N)=O [Example 230] (H-Y[Aib]EGT[αMePhe(2-F)]TSDYSI[αMeL]LDHK([AEEA-AEEA-γGlu-C20 diacid])AQ[Aib]EFI[dE]YLIEGGPSSGAPPPS-NH2) | 494 nM | 4.68 nM | 0.0491 nM | 0.0431 nM | 0.042 nM
CC[C@H](C)[C@H](NC(=O)[C@H](CC(C)C)NC(=O)[C@H](Cc1ccc(O)cc1)NC(=O)[C@H](CCC(=O)O)NC(=O)[C@@H](NC(=O)[C@H](Cc1ccccc1)NC(=O)[C@H](C)NC(=O)[C@H](CCCCNC(=O)COCCOCCNC(=O)COCCOCCNC(=O)CC[C@H](NC(=O)CCCCCCCCCCCCCCCCCCC(=O)O)C(=O)O)NC(=O)[C@H](CCC(N)=O)NC(=O)[C@H](C)NC(=O)[C@@H](NC(=O)C(C)(C)NC(=O)[C@H](CC(=O)O)NC(=O)[C@H](CC(C)C)NC(=O)[C@H](CC(C)C)NC(=O)[C@@H](NC(=O)[C@H](CO)NC(=O)[C@H](Cc1ccc(O)cc1)NC(=O)[C@H](CC(=O)O)NC(=O)[C@H](CO)NC(=O)[C@@H](NC(=O)[C@H](Cc1ccccc1)NC(=O)[C@@H](NC(=O)CNC(=O)[C@H](CCC(=O)O)NC(=O)C(C)(C)NC(=O)[C@@H](N)Cc1ccc(O)cc1)[C@@H](C)O)[C@@H](C)O)[C@@H](C)CC)[C@@H](C)CC)[C@@H](C)CC)C(=O)N[C@@H](CCC(=O)O)C(=O)NCC(=O)NCC(=O)N1CCC[C@H]1C(=O)N[C@@H](CO)C(=O)N[C@@H](CO)C(=O)NCC(=O)N[C@@H](C)C(=O)N1CCC[C@H]1C(=O)N1CCC[C@H]1C(=O)N1CCC[C@H]1C(=O)N[C@@H](CO)C(N)=O [Example 13] (H-Y[Aib]EGTFTSDYSILLD[Aib]IAQK([AEEA-AEEA-γGlu-C20 diacid])AFIEYLIEGGPSSGAPPPS-NH2) | > 1060 nM | 31.1 nM | 5.39 nM | 1.05 nM | 0.296 nM
CC[C@H](C)[C@H](NC(=O)[C@H](CC(C)C)NC(=O)[C@H](Cc1ccc(O)cc1)NC(=O)[C@H](CCC(=O)O)NC(=O)[C@@H](NC(=O)[C@H](Cc1ccccc1)NC(=O)[C@H](C)NC(=O)C(C)(C)NC(=O)[C@H](CCC(N)=O)NC(=O)[C@H](C)NC(=O)[C@H](CCCCNC(=O)COCCOCCNC(=O)COCCOCCNC(=O)CC[C@H](NC(=O)CCCCCCCCCCCCCCCCCCC(=O)O)C(=O)O)NC(=O)[C@H](CCCCN)NC(=O)[C@H](CC(=O)O)NC(=O)[C@H](CC(C)C)NC(=O)[C@H](CC(C)C)NC(=O)[C@@H](NC(=O)[C@H](CO)NC(=O)[C@H](Cc1c[nH]cn1)NC(=O)[C@H](CC(=O)O)NC(=O)[C@H](CO)NC(=O)[C@@H](NC(=O)[C@](C)(Cc1ccccc1)NC(=O)[C@@H](NC(=O)CNC(=O)[C@H](CCC(=O)O)NC(=O)C(C)(C)NC(=O)[C@@H](N)Cc1ccc(O)cc1)[C@@H](C)O)[C@@H](C)O)[C@@H](C)CC)[C@@H](C)CC)C(=O)N[C@@H](CCC(=O)O)C(=O)NCC(=O)NCC(=O)N1CCC[C@H]1C(=O)N[C@@H](CO)C(=O)N[C@@H](CO)C(=O)NCC(=O)N[C@@H](C)C(=O)N1CCC[C@H]1C(=O)N1CCC[C@H]1C(=O)N1CCC[C@H]1C(=O)N[C@@H](CO)C(N)=O [Example 128] (H-Y[Aib]EGT[αMeF]TSDHSILLDKK([AEEA-AEEA-γGlu-C20 diacid])AQ[Aib]AFIEYLIEGGPSSGAPPPS-NH2) | 433 nM | 1.88 nM | 0.0924 nM | 0.0694 nM | 0.0625 nM
CC[C@H](C)[C@H](NC(=O)[C@H](CC(C)C)NC(=O)[C@](C)(Cc1ccc(O)cc1)NC(=O)[C@H](CCC(=O)O)NC(=O)[C@@H](NC(=O)[C@H](Cc1ccccc1)NC(=O)[C@H](CCC(=O)O)NC(=O)C(C)(C)NC(=O)[C@H](CCC(N)=O)NC(=O)[C@H](C)NC(=O)[C@H](CCCCNC(=O)COCCOCCNC(=O)COCCOCCNC(=O)CC[C@H](NC(=O)CCCCCCCCCCCCCCCCCCC(=O)O)C(=O)O)NC(=O)[C@H](CCC(=O)O)NC(=O)[C@H](CC(=O)O)NC(=O)[C@H](CC(C)C)NC(=O)[C@](C)(CC(C)C)NC(=O)[C@@H](NC(=O)[C@H](CO)NC(=O)[C@H](Cc1ccc(O)cc1)NC(=O)[C@H](CC(=O)O)NC(=O)[C@H](CO)NC(=O)[C@@H](NC(=O)[C@](C)(Cc1ccccc1F)NC(=O)[C@@H](NC(=O)CNC(=O)[C@H](CCC(=O)O)NC(=O)C(C)(C)NC(=O)[C@@H](N)Cc1ccc(O)cc1)[C@@H](C)O)[C@@H](C)O)[C@@H](C)CC)[C@@H](C)CC)C(=O)N[C@@H](CCC(=O)O)C(=O)NCC(=O)NCC(=O)N1CCC[C@H]1C(=O)N[C@@H](CO)C(=O)N[C@@H](CO)C(=O)NCC(=O)N[C@@H](C)C(=O)N1CCC[C@H]1C(=O)N1CCC[C@H]1C(=O)N1CCC[C@H]1C(=O)N[C@@H](CO)C(N)=O [Example 223] (H-Y[Aib]EGT[αMePhe(2-F)]TSDYSI[αMeL]LDEK([AEEA-AEEA-γGlu-C20 diacid])AQ[Aib]EFIE[αMeY]LIEGGPSSGAPPPS-NH2) | 46.5 nM | 5.62 nM | 0.0363 nM | 0.067 nM | 0.0921 nM
CC[C@H](C)[C@H](NC(=O)[C@H](CC(C)C)NC(=O)[C@H](Cc1ccc(O)cc1)NC(=O)[C@H](CCC(=O)O)NC(=O)[C@@H](NC(=O)[C@H](Cc1ccccc1)NC(=O)[C@H](C)NC(=O)C(C)(C)NC(=O)[C@H](CCC(N)=O)NC(=O)[C@H](C)NC(=O)[C@H](CCCCNC(=O)COCCOCCNC(=O)COCCOCCNC(=O)CC[C@H](NC(=O)CCCCCCCCCCCCCCCCCCC(=O)O)C(=O)O)NC(=O)[C@H](CCCCN)NC(=O)[C@H](CC(=O)O)NC(=O)[C@H](CC(C)C)NC(=O)[C@H](CC(C)C)NC(=O)[C@@H](NC(=O)[C@H](CO)NC(=O)[C@H](Cc1ccc(O)cc1)NC(=O)[C@H](CC(=O)O)NC(=O)[C@H](CO)NC(=O)[C@@H](NC(=O)[C@H](Cc1ccccc1)NC(=O)[C@@H](NC(=O)CNC(=O)[C@H](CCC(=O)O)NC(=O)C(C)(C)C(=O)NCCc1cnc[nH]1)[C@@H](C)O)[C@@H](C)O)[C@@H](C)CC)[C@@H](C)CC)C(=O)N[C@@H](CCC(=O)O)C(=O)NCC(=O)NCC(=O)N1CCC[C@H]1C(=O)N[C@@H](CO)C(=O)N[C@@H](CO)C(=O)NCC(=O)N[C@@H](C)C(=O)N1CCC[C@H]1C(=O)N1CCC[C@H]1C(=O)N1CCC[C@H]1C(=O)N[C@@H](CO)C(N)=O [Example 105] ({Malonyl(2,2-Me2,histaminyl)}-EGTFTSDYSILLDKK([AEEA-AEEA-γGlu-C20 diacid])AQ[Aib]AFIEYLIEGGPSSGAPPPS-NH2) | 20.4 nM | 0.871 nM | 0.0401 nM | 1.85 nM | 0.119 nM
